Patent EP4778921A1, “SALT FORM AND CRYSTAL FORM OF NITROGEN-CONTAINING HETEROCYCLIC DERIVATIVE INHIBITOR, AND PREPARATION METHOD THEREFOR AND USE THEREOF” (Shanghai Hansoh Biomedical Co., Ltd., priority 2023, dated 2025)
In brackets after ≈: the same amount, converted by molar mass.

Tests used:
Format in all cases: physicochemical
[1] = Hygroscopicity experiment (crystal forms of salts and crystal form A of free base)
Excerpt: • 2.1 Experimental objective: The hygroscopicity of different crystal forms of salts of the compound was investigated under various relative humidity conditions to provide a basis for screening and storage of the crystal forms of salts of the compound. • 2.2 Experimental scheme: The crystal forms of salts of the compound were placed in saturated water vapor at different relative humidities to reach a dynamic equilibrium between the compound and the water vapor.
3.1 Experimental objective: The hygroscopicity of crystal form A of free base of the compound was investigated under various relative humidity conditions to provide a basis for screening and storage of the crystal forms of the compound.
3.2 Experimental scheme: The crystal form A of free base of the compound was placed in saturated water vapor at different relative humidities to reach a dynamic equilibrium between the compound and the water vapor. The percentage weight gain of the compound due to moisture absorption was calculated after the equilibrium.

[2] = Stability experiment of solid crystal form A of free base; conditions: 60°C; room temperature, 92.5% RH; 50°C, RH = 75%; 5, 10, 20 and 30 days
Procedure: 2.1 Experimental objective: To investigate the physical and chemical stability for crystal form A of free base under the conditions of a high temperature of 60°C, room temperature and a high humidity of 92.5% RH and 50°C, RH = 75% for 5, 10, 20 and 30 days and provide a basis for the storage of the compound.
2.2 Experimental scheme: About 2 mg of crystal form A of free base was taken and investigated under the conditions of 60°C in an oven, room temperature and a high humidity of RH = 92.5%, and 50°C, RH = 75% for 5, 10, 20 and 30 days. The content was determined by HPLC and an external standard method, and the changes of related substances were calculated by a chromatographic peak area normalization method (see 1.2.3 for the chromatographic conditions).

[3] = Solubility experiments in different media, crystal form A of free base; conditions: thermodynamic from solid
Procedure: 4.1 Experimental objective: The solubility of the crystal form A of free base in media such as pH1 buffer, artificial simulated gastric fluid (FaSSGF), fasted-state artificial simulated intestinal fluid (FaSSIF), and fed-state artificial simulated intestinal fluid (FeSSIF) was tested to provide a basis for the evaluation of the potential of the crystal form being manufactured as a drug.
4.2 Experimental scheme: About 1.0 mg of crystal form A of free base was weighed into 2 mL glass vials, and pH1 buffer solution, fasted-state artificial simulated intestinal fluid (FaSSIF), fed-state artificial simulated intestinal fluid (FeSSIF), and fasted-state simulated gastric fluid (FaSSGF) (1 mL for each medium) were added to each vial, respectively. The vials were placed on a micromixer for shaking overnight with the temperature set at 37°C. After 24 h, the sample solutions were filtered through 0.45 µm nylon filter membranes, and the filtrates were collected. The concentrations were determined by an external standard method and HPLC.

## CC(C)c1c(F)cc(N2C[C@H](N(C)S(C)(=O)=O)[C@H]2C)c2cnc(Nc3ccnc(-c4cn(C)nc4Cl)n3)cc12 [crystal form A of free base, N-((2R,3S)-1-(3-((2-(3-chloro-1-methyl-1H-pyrazol-4-yl)pyrimidin-4-yl)amino)-6-fluoro-5-isopropylisoquinolin-8-yl)-2-methylazetidin-3-yl)-N-methylmethanesulphonamide]
[1]; RH 80%
  weight gain after moisture absorption: about 0.1719%
[1]; RH 80%, result in words
  hygroscopicity: weak hygroscopicity
[1]; after 1 cycle of moisture absorption and desorption, 0-95% relative humidity
  crystal form transformation (XRPD pattern): no crystal form transformation occurred
[2]
  stability: excellent stability
[3]; fassgf or other biorelevant, FaSSGF (simulated gastric fluid, fasted), 37°C
  solubility at 24 h: 8 µg/mL (≈ 14 µM)
[3]; pH1 buffer, simulated gastric fluid, pH 1, 37°C
  solubility at 24 h: 558 µg/mL (≈ 974 µM)
[3]; FaSSIF (simulated intestinal fluid, fasted), 37°C
  solubility at 24 h: 10 µg/mL (≈ 17.4 µM)
[3]; FeSSIF (simulated intestinal fluid, fed), 37°C
  solubility at 24 h: 209 µg/mL (≈ 365 µM)
